Source: patent US7375136B2, “pH-dependent NMDA receptor antagonists” (Emory University, priority 2001, dated 2008)
Where two headings read alike, the source gives them in different places. Values belong to the compound of their own block, whether it stands above or below them.

Tests used:
Male Sprague-Dawley rats = assay: Maximal electroshock seizures, duration of tonic hindlimb extension (THE); assay type: in vivo; conditions: for Anticonvulsive effects: rat maximal electroshock, summary in words; for THE in drug (% control): rat, mean ± sem
Source text: Methods: Male Sprague-Dawley rats weighing less than 150 gm were used for these experiments. Maximal electroshock seizures were produced by delivering 200 ms biphasic square-wave pulses of 200 mA at 60 Hz via corneal electrodes, using a Wahlquist Constant Current Source (Salt Lake City, Utah). A drop of 0.9% lidocaine in saline was applied to each cornea 30 s before stimulus delivery to minimize pain. Automatic timers recorded the durations of tonic hindlimb flexion, tonic hindlimb extension (THE), clonus and flaccidity that sequentially followed stimulus delivery. The duration of THE was used as an index of seizure severity. Animals were stimulated on three consecutive days, referred to as “control”, “test”, and “recovery”. […] On “test” day, each animal received either vehicle or drug at varying intervals prior to stimulation. Reversibility of drug effect on THE was ascertained by response to stimulation administered one day after the “test” session. The values shown in the table are the mean (±sem) THE duration in the test condition, as a percentage of the mean of control and recovery conditions. Four rats were used for each time point.
P<0.001 for difference from vehicle by one-way ANOVA with Dunnett's post hoc test. For all other conditions P>0.05.

NR1-1a/NR2B receptors = NR1-1a/NR2B receptors (Homo sapiens, UniProt Q05586+Q13224); assay: Two electrode voltage clamp of Xenopus oocytes expressing NR1-1a and NR2B NMDA receptor subunits; inhibition of glutamate/glycine current at pH 6.9 and 7.6; assay type: cell-based; conditions: for Fold increase in potency between pH 7.6 and 6.9: IC50 at pH 7.6/IC50 at pH 6.9
Method: Current recordings were obtained using two electrode voltage clamp of Xenopus oocytes injected with cRNA encoding the NR1-1a and NR2B NMDA receptor subunits. Cells were injected with 5-15 ng of cRNA encoding NR1-1a in combination with a 2-3 fold greater amount of either NR2B cRNA. Injected oocytes were maintained at 17° C. in Barths solution containing penicillin (10 U/ml) and streptomycin (10 μg/ml) for 2-6 days, after which recordings were made at room temperature from oocytes continuously perfused in a standard frog Ringers solution. This solution was composed of (in mM): 90 NaCl, 1.0 KCl, 10 Hepes and 0.5 BaCl2. Recording pipettes were filled with 0.3M KCl. Saturating concentrations of glutamate (20-50 μM) and glycine (20 μM) were used to activate the receptor. Drugs were prepared daily from frozen stock solutions in DMSO. Glutamate/glycine-activated currents were typically elicited from a holding potential of −20 to −40 mV. Current signals were digitized and analyzed using custom acquisition software. To study the effects of pH, oocytes were perfused with Ringer's solution at the desired pH until a stable baseline had been reached before subsequent agonist application.
Oocytes in which the glutamate/glycine current was not stable or in which the baseline holding current drifted were discarded. Inhibition of the glutamate/glycine current by drugs was examined by applying 1-4 different concentrations of the antagonist to each oocyte. […] On average recordings were made from 14 oocytes per condition.

[1] = Table D, pH 6.9, NR1-1a/NR2B in Xenopus oocytes, read-out: IC50 at pH 6.9
[2] = Table A, pH 6.9, NR1-1a/NR2B in Xenopus oocytes, read-out: IC50 at pH 6.9
[3] = 30 mg/kg, 15 min from drug injection to electroshock
[4] = 30 mg/kg, 60 min from drug injection to electroshock
[5] = Table B, pH 6.9, NR1-1a/NR2B in Xenopus oocytes, read-out: IC50 at pH 6.9
[6] = 30 mg/kg, 30 min from drug injection to electroshock

NR1-1a/NR2B receptors, sequence (Q13224 27-1484, other chains not shown): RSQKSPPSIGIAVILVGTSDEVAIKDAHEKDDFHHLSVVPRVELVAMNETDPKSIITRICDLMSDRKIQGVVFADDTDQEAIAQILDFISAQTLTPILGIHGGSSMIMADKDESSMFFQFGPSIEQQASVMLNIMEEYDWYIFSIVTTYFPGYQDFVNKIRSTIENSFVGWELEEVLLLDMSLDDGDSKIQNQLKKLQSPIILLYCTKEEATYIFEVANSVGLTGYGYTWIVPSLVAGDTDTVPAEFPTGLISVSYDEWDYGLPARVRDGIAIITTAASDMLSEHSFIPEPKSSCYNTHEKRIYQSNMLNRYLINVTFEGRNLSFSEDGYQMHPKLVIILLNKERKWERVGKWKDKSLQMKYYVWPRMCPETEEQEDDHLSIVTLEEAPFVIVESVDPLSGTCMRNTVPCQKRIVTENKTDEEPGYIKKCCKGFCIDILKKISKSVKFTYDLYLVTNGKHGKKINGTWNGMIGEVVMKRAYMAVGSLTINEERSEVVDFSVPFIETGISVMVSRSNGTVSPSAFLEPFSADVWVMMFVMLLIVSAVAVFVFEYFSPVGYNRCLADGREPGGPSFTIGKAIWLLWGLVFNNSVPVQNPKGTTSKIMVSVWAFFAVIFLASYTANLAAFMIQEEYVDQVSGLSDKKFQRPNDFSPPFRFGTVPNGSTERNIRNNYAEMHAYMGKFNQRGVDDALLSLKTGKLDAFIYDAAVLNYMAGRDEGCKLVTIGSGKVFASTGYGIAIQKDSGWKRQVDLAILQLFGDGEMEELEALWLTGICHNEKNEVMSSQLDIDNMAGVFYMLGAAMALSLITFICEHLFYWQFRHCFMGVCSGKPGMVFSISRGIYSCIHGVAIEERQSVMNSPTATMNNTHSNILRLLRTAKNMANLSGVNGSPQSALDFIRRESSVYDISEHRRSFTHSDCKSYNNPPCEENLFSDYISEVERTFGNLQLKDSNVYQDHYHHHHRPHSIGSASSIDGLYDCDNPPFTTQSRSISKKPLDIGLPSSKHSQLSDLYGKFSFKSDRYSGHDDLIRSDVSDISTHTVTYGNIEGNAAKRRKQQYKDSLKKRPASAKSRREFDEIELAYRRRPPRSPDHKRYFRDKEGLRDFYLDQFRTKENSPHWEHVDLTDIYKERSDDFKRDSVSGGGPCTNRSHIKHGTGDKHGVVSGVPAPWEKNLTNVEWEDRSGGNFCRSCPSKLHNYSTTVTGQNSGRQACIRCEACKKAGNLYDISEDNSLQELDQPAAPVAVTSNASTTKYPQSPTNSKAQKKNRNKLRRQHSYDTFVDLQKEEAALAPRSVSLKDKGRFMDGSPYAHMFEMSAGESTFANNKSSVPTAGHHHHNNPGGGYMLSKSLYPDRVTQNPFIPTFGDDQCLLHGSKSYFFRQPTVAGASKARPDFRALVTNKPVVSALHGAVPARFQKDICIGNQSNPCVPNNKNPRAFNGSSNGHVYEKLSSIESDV

SMILES: CN(CCc1ccc(Cl)c(Cl)c1)CC(O)COc1ccc(NS(C)(=O)=O)cc1.Cl (racemic) [Compound 93, (R,S) 1-(4-methanesulfonamidophenoxy)-3-(N-methyl-3,4-dichlorophenylethylamine)-2-propanol hydrochloride, reference compound]
- Anticonvulsive effects (Male Sprague-Dawley rats): Anticonvulsive effects
- THE in drug (% control) (Male Sprague-Dawley rats; 10 mg/kg, 15 min from drug injection to electroshock): 78.2 ± 4.5 % control
- THE in drug (% control) (Male Sprague-Dawley rats; 10 mg/kg, 30 min from drug injection to electroshock): 58.5 ± 11.3 % control
- THE in drug (% control) (Male Sprague-Dawley rats; 10 mg/kg, 60 min from drug injection to electroshock): 62.4 ± 3.9 % control
- THE in drug (% control) (Male Sprague-Dawley rats; 30 mg/kg, 240 min from drug injection to electroshock): 96.2 ± 1.7 % control

- Fold increase in potency between pH 7.6 and 6.9 (NR1-1a/NR2B receptors; Table D): 4.82
- IC50 (NR1-1a/NR2B receptors; [1]): 11200 nM
SMILES: OC(CNCCc1ccc(Cl)c(Cl)c1)COc1ccc(OC(F)(F)F)cc1 (racemic) [Compound 93-16]

SMILES: CN(CCc1ccc(Cl)c(Cl)c1)C[C@H](O)COc1ccc(NS(C)(=O)=O)cc1 [93-2 (S), (S)-1-(4-Methanesulphonamidephenoxy)3-(N-methyl-3,4-dichloro-phenylethylamino)-2-propanol]
- Fold increase in potency between pH 7.6 and 6.9 (NR1-1a/NR2B receptors; Table A): 5.87
- IC50 (NR1-1a/NR2B receptors; [2]): 63 nM
- Fold increase in potency between pH 7.6 and 6.9 (NR1-1a/NR2B receptors; Table C): 5.87

SMILES: CS(=O)(=O)Nc1ccc(OC[C@@H](O)CNCCc2ccc(Cl)c(Cl)c2)cc1.Cl [93-4 (S), (S)-1-(4-methanesulfonamideophenoxy)-3-(3,4-dichlorophenylethylamine)-2-propanol hydrochloride]
- Anticonvulsive effects (Male Sprague-Dawley rats): Anticonvulsive effects
- THE in drug (% control) (Male Sprague-Dawley rats; 3 mg/kg, 15 min from drug injection to electroshock): 91.1 ± 2.7 % control
- THE in drug (% control) (Male Sprague-Dawley rats; 3 mg/kg, 60 min from drug injection to electroshock): 109 ± 11.5 % control
- THE in drug (% control) (Male Sprague-Dawley rats; [3]): 66.6 ± 12.5 % control
- THE in drug (% control) (Male Sprague-Dawley rats; [4]): 30.8 ± 12.1 % control
- Fold increase in potency between pH 7.6 and 6.9 (NR1-1a/NR2B receptors; Table B): 3.54
- IC50 (NR1-1a/NR2B receptors; [5]): 26 nM
- Fold increase in potency between pH 7.6 and 6.9 (NR1-1a/NR2B receptors; Table C): 3.54
- Fold increase in potency between pH 7.6 and 6.9 (NR1-1a/NR2B receptors; Table D): 3.54
- IC50 (NR1-1a/NR2B receptors; [1]): 26 nM

SMILES: CCN(CCc1ccc(Cl)c(Cl)c1)C[C@H](O)COc1ccc(NS(C)(=O)=O)cc1 [93-5 (S), (S)-1-(4-Methanesulphonamidephenoxy)-3-(N-ethyl-3,4-dichloro-phenylethylamino)-2-propanol]
- Fold increase in potency between pH 7.6 and 6.9 (NR1-1a/NR2B receptors; Table A): 8.00
- IC50 (NR1-1a/NR2B receptors; [2]): 20 nM
- Fold increase in potency between pH 7.6 and 6.9 (NR1-1a/NR2B receptors; Table C): 8.00

SMILES: CCCN(CCc1ccc(Cl)c(Cl)c1)C[C@H](O)COc1ccc(NS(C)(=O)=O)cc1 [93-6 (S), (S)-1-(4-Methanesulphonamidephenoxy)3-(N-propyl-3,4-dichloro-phenylethylamino)-2-propanol]
- Fold increase in potency between pH 7.6 and 6.9 (NR1-1a/NR2B receptors; Table A): 6.54
- IC50 (NR1-1a/NR2B receptors; [2]): 111 nM
- Fold increase in potency between pH 7.6 and 6.9 (NR1-1a/NR2B receptors; Table C): 6.54

SMILES: CN(c1ccc(OC[C@@H](O)CNCCc2ccc(Cl)c(Cl)c2)cc1)S(C)(=O)=O [93-7 (S), (S)-1-(4-N-methyl-methanesulphonamidephenoxy)-3-(3,4-dichloro-phenylethylamino)-2-propanol]
- IC50 (NR1-1a/NR2B receptors): 2330 nM
- Fold increase in potency between pH 7.6 and 6.9 (NR1-1a/NR2B receptors; Table D): 5.51

SMILES: CS(=O)(=O)Nc1ccc(OC[C@@H](O)CN(CCO)CCc2ccc(Cl)c(Cl)c2)cc1 [93-8 (S), (S)-1-(4-methanesulphonamidephenoxy)-e-(N-(2-hydroxyethyl)-3,4-dichlorophenylethylamino)-2-propanol]
- Anticonvulsive effects (Male Sprague-Dawley rats): Anticonvulsive effects
- THE in drug (% control) (Male Sprague-Dawley rats; [3]): 91.9 ± 0.4 % control
- THE in drug (% control) (Male Sprague-Dawley rats; [6]): 85.7 ± 2.8 % control
- THE in drug (% control) (Male Sprague-Dawley rats; [4]): 59.3 ± 4.1 % control
- Fold increase in potency between pH 7.6 and 6.9 (NR1-1a/NR2B receptors; Table A): 11.3
- IC50 (NR1-1a/NR2B receptors; [2]): 29 nM
- Fold increase in potency between pH 7.6 and 6.9 (NR1-1a/NR2B receptors; Table C): 11.3

SMILES: CS(=O)(=O)Nc1cccc(OC[C@@H](O)CNCCc2ccc(Cl)c(Cl)c2)c1 [93-9 (S), (S)-1-(3-Methanesulphonamidephenoxy)3-(3,4-dichlorophenylcthyl-amino)-2-propanol]
- IC50 (NR1-1a/NR2B receptors): 208 nM
- Fold increase in potency between pH 7.6 and 6.9 (NR1-1a/NR2B receptors; Table D): 8.19

SMILES: O=[N+]([O-])c1ccc(OC[C@@H](O)CNCCc2ccc(Cl)c(Cl)c2)cc1 [93-10 (S), (S)-1-(4-Nitrophenoxy)3-(3,4-dichlorophenylethylamino)-2propanol]
- IC50 (NR1-1a/NR2B receptors): 12100 nM
- Fold increase in potency between pH 7.6 and 6.9 (NR1-1a/NR2B receptors; Table D): 1.60

SMILES: CS(=O)(=O)Nc1ccc(OCC2CN(CCc3ccc(Cl)c(Cl)c3)C(=O)O2)cc1 [93-27 (S), N-(3,4-dichlorophenyl)ethyl-5-(4-methanesulphonamidophenoxy) methyl-oxazolidine-2-one]
- THE in drug (% control) (Male Sprague-Dawley rats; [3]): 97.0 ± 0.6 % control
- THE in drug (% control) (Male Sprague-Dawley rats; [6]): 95.6 ± 1.3 % control
- THE in drug (% control) (Male Sprague-Dawley rats; [4]): 89.7 ± 0.8 % control
- Fold increase in potency between pH 7.6 and 6.9 (NR1-1a/NR2B receptors; Table B): 0.95
- IC50 (NR1-1a/NR2B receptors; [5]): 338 nM
- Fold increase in potency between pH 7.6 and 6.9 (NR1-1a/NR2B receptors; Table C): 0.954

- Fold increase in potency between pH 7.6 and 6.9 (NR1-1a/NR2B receptors; Table A): 11.1
- IC50 (NR1-1a/NR2B receptors; [2]): 1640 nM
SMILES: CC(=O)OC(COc1ccc(NS(C)(=O)=O)cc1)CN(CCc1ccc(Cl)c(Cl)c1)C(C)=O [93-28 (S), 1-(4-Methanesulphonamidophenoxy)-3-(N-acetyl-3,4-dichloro-phenylethylamino)-2-propyl acetate]

SMILES: O=S(=O)(Nc1ccc(OCC(O)CNCCc2ccc(Cl)c(Cl)c2)cc1)c1ccccc1 [93-29 (S), 1-(4-benzenesulphonamidophenoxy)-3-(3,4-dichloro-phenylethyl-amino)-2-propanol]
- IC50 (NR1-1a/NR2B receptors): 1160 nM
- Fold increase in potency between pH 7.6 and 6.9 (NR1-1a/NR2B receptors; Table A): 18.0
- Fold increase in potency between pH 7.6 and 6.9 (NR1-1a/NR2B receptors; Table D): 18.02

SMILES: CS(=O)(=O)Nc1ccc(OC[C@@H](O)CN(CCc2ccc(Cl)c(Cl)c2)Cc2ccccc2)cc1 [93-30 (S), (S)-1-(4-Methanesulphonamidephenoxy)-3-(N-benzyl-3,4-dichloro-phenylethylamino)-2-propanol]
- Fold increase in potency between pH 7.6 and 6.9 (NR1-1a/NR2B receptors; Table A): 16.8
- IC50 (NR1-1a/NR2B receptors; [2]): 70 nM
- Fold increase in potency between pH 7.6 and 6.9 (NR1-1a/NR2B receptors; Table C): 16.8

SMILES: CCCCN(CCc1ccc(Cl)c(Cl)c1)C[C@H](O)COc1ccc(NS(C)(=O)=O)cc1 [93-31 (S), (S)-1-(4-Methanesulphonamidephenoxy)-3-(N-butyl-3,4-dichloro-phenylethylamino)-2-propanol]
- Fold increase in potency between pH 7.6 and 6.9 (NR1-1a/NR2B receptors; Table A): 51.2
- IC50 (NR1-1a/NR2B receptors; [2]): 58 nM
- Fold increase in potency between pH 7.6 and 6.9 (NR1-1a/NR2B receptors; Table C): 51.2

SMILES: CS(=O)(=O)Nc1ccccc1OC[C@@H](O)CNCCc1ccc(Cl)c(Cl)c1 [93-32 (S), 1-(2-Methanesulphonamidephenoxy)-3-(3,4-dichlorophenylethylamino)-2-propanol]
- IC50 (NR1-1a/NR2B receptors): 17900 nM

SMILES: CS(=O)(=O)Nc1ccc(OC[C@@H](O)CN(CCc2ccc(Cl)c(Cl)c2)Cc2ccc(F)cc2)cc1 [93-33 (S), (S)-1-(4-Methanesulphonamidephenoxy)-3-(N-(4-fluorobenzyl)-3,4-dichlorophenylethylamino)-2-propanol]
- Fold increase in potency between pH 7.6 and 6.9 (NR1-1a/NR2B receptors; Table B): 0.810
- IC50 (NR1-1a/NR2B receptors; [5]): 520 nM

SMILES: CS(=O)(=O)Nc1ccc(OC[C@@H](O)CN(CCc2ccc(Cl)c(Cl)c2)Cc2cccc(F)c2)cc1 [93-34 (S), (S)-1-(4-Methanesulphonamidephenoxy)-3-(N-(3-fluorobenzyl)-3,4-dichlorophenylethylamino)-2-propanol]
- Fold increase in potency between pH 7.6 and 6.9 (NR1-1a/NR2B receptors; Table B): 4.62
- IC50 (NR1-1a/NR2B receptors; [5]): 210 nM

SMILES: CS(=O)(=O)Nc1ccc(OC[C@@H](O)CN(CCc2ccc(Cl)c(Cl)c2)Cc2ccccc2F)cc1 [93-35 (S), (S)-1-(4-Methanesulphonamidephenoxy)-3-(N-(2-fluorobenzyl)-3,4-dichlorophenylethylamino)-2-propanol]
- Fold increase in potency between pH 7.6 and 6.9 (NR1-1a/NR2B receptors; Table B): 3.60
- IC50 (NR1-1a/NR2B receptors; [5]): 48 nM

SMILES: NC(=O)N1c2ccccc2C=Cc2ccccc21 [Carbamazepine, reference compound]
- THE in drug (% control) (Male Sprague-Dawley rats; 40 mg/kg, 30 min from drug injection to electroshock): 0.0 ± 0.0 % control

SMILES: C[C@@H](CN1CCC(Cc2ccccc2)CC1)[C@@H](O)c1ccc(O)cc1 [Ro256981, reference compound]
- Fold increase in potency between pH 7.6 and 6.9 (NR1-1a/NR2B receptors; Table B): 0.444
- IC50 (NR1-1a/NR2B receptors; [5]): 18 nM
